According to US20230405134A1, “NOVEL PROTAC CHIMERIC COMPOUND, AND PHARMACEUTICAL COMPOSITION COMPRISING SAME FOR PREVENTING, AMELIORATING, OR TREATING DISEASES THROUGH TARGET PROTEIN DEGRADATION” (POSTECH RESEARCH AND BUSINESS DEVELOPMENT FOUNDATION, priority 2020, published 2023):
Where a SMILES comes first, the peptide text is derived from it. Bridges are numbered along the chain shown (N, C = ends). [ ]: non-standard residue; d: D form. Cha = N[C@@H](CC1CCCCC1)C(=O)O; S5 = C=CCCC[C@](C)(N)C(=O)O

Experiments:
CSF-1 = CSF-1 mRNA level by RT-qPCR in MDA-MB-231 cells; assay type: cell-based, human; conditions: 12 hours
Text: (§1) The pharmacological effects on SRC-1 dependent signal transmission were explored using the previously discovered SRC-1 degrading substance. The SRC-1 is overexpressed in various cancers and plays a pivotal role in increasing cell migration and invasion by regulating the expression of related genes. Therefore, when treated with ND1-YL2, an SRC-1 degrading substance, the expression of genes stimulated by SRC-1, such as colony stimulating factor-1 (CSF-1), a gene encoding the cytokine CSF-1 that induces cell differentiation and migration, will be suppressed. To confirm this, MDA-MB-231 cells were treated with DMSO and various concentrations of ND1-YL2, YL2 or N-degron tetrapeptide for 12 hours, and the mRNA level of CSF-1 was normalized to 18S level. Confirmation was made using quantitative real-time polymerase chain reaction (RT-qPCR). MDA-MB-231 cells were seeded at 2×10^5 cells per well. After 24 hours, compounds (YL2, RLAA or ND1-YL2) were treated in Opti-MEM medium for 12 hours. Subsequently, general mRNA isolation was performed using TRI reagent (Takara), and total mRNA was isolated from the cells. The absorbance of total mRNA was measured with a Tecan F200 Nanophotometer, and reverse transcription was performed using AccuPower RocketScript Cycle RT PreMix (Bioneer). Quantitative real-time PCR for CSF-1, E-Cadherin and 18S was performed using a StepOnePlus Real-Time PCR System and SYBR Green mix (Applied Biosystems) according to the manufacturer's manual.

E-cadherin = E-cadherin mRNA level by RT-qPCR in MDA-MB-231 cells; assay type: cell-based, human; conditions: 12 hours
Text: as §1
In addition, the effect of the ND1-YL2 on the expression of E-cadherin, a tumor suppressor gene that plays an important role in cell-cell adhesion, was tested. Since SRC-1 protein is known to suppress the E-cadherin expression, the ND1-YL2 will upregulate the E-cadherin by degrading SRC-1.

MDA-MB-231 cells [1] = test: Gap closure migration assay; assay type: cell-based, human; conditions: 20 μM, 72 hours
Description: Based on the results that the SRC-1 degradation effectively affects the transcription mediated by SRC-1 (FIGS. 18A and 18B), it was predicted that ND1-YL2 would exert an inhibitory effect on downstream signaling pathways such as increased cancer cell migration and invasion. To test this, we first performed a gap closure migration assay using an invasive MDA-MB-231 cell line. MDA-MB-231 cells (70 μL of 4×10^5 cells/mL) were seeded in culture insert 2 wells (ibidi, 80209) pre-inserted into p-dishes (ibidi) under the conditions of 37° C. and 5% CO2. The culture insert 2 wells was gently removed with sterile tweezers. The cells were treated with DMSO, YL2 (20 […]), RLAA (20 μM) or ND1-YL2 (20 μM) in Opti-MEM medium for 72 hours. Images were obtained by a camera (Olympus) attached to an optical microscope. The cells were grown in the culture insert wells, and the inserts were removed to create intercellular gaps inside the wells. Subsequently, after treated with DMSO, YL2, RLAA peptide or ND1-YL2, the cells were cultured for 72 hours and the degree of cell migration was observed. The cell migration was quantified by analyzing the images of cells filling the gap.

MDA-MB-231 cells [2] = test: Matrigel invasion assay; assay type: cell-based, human; conditions: 24 hours; ND1-YL2 various concentrations, YL2 and RLAA 20 μM
Description: The inhibition of cell migration may be due to the inhibitory effect of ND1-YL2 on cell growth. In order to exclude this possibility, the invasive ability of cells treated with ND1-YL2 was confirmed. A Corning Matrigel insert (Corning) was placed in a 24-well plate. After hydrating the Matrigel insert with an FBS-free DMEM medium for 2 hours in a CO2 incubator, MDA-MB-231 cells were cultured in the Matrigel insert (4×10^4 cells/insert) with 125 μL of Opti-MEM medium. Another 125 μl of compound containing Opti-MEM medium was added to the insert. The lower chamber was filled with 500 μL of DMEM medium containing 10% FBS. The Matrigel chamber was cultured for 24 hours under the conditions of 37° C. and 5% CO2. The cell culture media of the upper and lower chambers were removed and washed three times with cold DPBS. Non-invasive cells were then removed with a cotton swab. The bottom of the chamber was fixed with 4% formaldehyde for 10 minutes at room temperature, and stained with Hoechst 33342 (5 μg/mL) for 5 minutes in a CO2 incubator. After washed with DPBS, images of infiltrated cells were obtained by a fluorescence microscope. The percentage of the invasive cells was calculated using the product manual. MDA-MB-231 cells were treated with various concentrations of ND1-YL2, N-degron (20 μM) or YL2 (20 μM). After 24 hours, images of the invaded cells were obtained by a fluorescence microscope, and the number of invaded cells was quantified through the images. […] The inhibitory activity of ND1-YL2 on cell migration and invasion is in good agreement with previous SRC-1 knockdown experiments.

SRC-1 = SRC-1 (Homo sapiens, UniProt Q15788); test: SRC-1 expression level in MDA-MB-231 cells by Western blot; assay type: cell-based; design: endogenous in cells; host or cells: MDA-MB-231; conditions: 20 μM, 12 hours
[3] = target: T1, UBR box (residues 113-194) in the UBR1 E3 ubiquitin ligase of S. cerevisiae (S. cerevisiae, UniProt P19812 113-194); test: competitive fluorescence polarization on the UBR box (as the sentence implies; the origin of the value is not stated)
T1 construct: range 113-194; Expressed and purified as in Nat; Struct; Mol. Biol. 2010, 17, 1175-1181
T1 sequence (looked up): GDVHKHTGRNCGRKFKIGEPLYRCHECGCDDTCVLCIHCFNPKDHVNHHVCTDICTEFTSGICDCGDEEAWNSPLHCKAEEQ

Chain of SRC-1 (Q15788 whole entry, the tested form may be a part): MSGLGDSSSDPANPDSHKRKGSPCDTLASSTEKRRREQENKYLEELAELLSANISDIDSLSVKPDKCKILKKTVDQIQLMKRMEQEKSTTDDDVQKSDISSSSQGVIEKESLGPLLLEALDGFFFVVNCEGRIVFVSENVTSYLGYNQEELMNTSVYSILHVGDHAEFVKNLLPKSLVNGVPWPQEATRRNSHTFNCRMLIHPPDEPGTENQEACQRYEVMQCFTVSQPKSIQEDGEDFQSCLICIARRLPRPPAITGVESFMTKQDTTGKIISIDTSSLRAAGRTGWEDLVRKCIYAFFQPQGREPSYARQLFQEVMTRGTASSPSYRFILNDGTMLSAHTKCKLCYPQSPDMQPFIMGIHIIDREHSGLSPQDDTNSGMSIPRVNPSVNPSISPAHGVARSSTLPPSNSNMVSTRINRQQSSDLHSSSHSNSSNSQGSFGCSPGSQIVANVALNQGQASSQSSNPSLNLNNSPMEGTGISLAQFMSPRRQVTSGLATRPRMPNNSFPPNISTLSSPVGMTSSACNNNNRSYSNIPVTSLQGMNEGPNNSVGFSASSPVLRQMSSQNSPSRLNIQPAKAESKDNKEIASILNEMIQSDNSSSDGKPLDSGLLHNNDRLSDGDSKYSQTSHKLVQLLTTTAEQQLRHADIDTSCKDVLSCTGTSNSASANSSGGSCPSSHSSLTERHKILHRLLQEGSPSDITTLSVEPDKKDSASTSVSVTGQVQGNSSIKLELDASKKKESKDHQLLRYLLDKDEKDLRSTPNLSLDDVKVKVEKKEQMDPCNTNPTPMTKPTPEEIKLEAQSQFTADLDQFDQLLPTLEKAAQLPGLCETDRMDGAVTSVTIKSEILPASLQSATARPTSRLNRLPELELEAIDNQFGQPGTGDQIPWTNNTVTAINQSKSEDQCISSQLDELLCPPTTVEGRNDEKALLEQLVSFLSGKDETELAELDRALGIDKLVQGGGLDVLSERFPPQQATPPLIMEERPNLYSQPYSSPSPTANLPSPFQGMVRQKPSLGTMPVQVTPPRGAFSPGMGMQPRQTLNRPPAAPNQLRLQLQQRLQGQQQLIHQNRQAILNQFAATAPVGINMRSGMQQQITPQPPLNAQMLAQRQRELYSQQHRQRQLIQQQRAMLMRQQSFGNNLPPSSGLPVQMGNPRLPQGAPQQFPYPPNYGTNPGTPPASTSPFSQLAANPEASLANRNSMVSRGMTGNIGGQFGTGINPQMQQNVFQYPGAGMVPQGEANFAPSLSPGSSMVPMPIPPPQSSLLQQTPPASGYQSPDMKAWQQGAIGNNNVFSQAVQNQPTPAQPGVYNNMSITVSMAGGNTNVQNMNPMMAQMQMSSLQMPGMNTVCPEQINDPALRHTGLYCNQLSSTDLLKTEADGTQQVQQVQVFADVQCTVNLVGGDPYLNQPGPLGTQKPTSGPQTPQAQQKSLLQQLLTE

Row | Molecule | Effect on CSF-1 expression (mRNA normalized to 18S) (CSF-1) | Effect on E-cadherin expression (mRNA) (E-cadherin) | Existing gaps maintained (cell migration) (MDA-MB-231 cells [1]) | Effect on cell invasion (MDA-MB-231 cells [2]) | SRC-1 degradation, single agents compared (SRC-1) | Ki [3]
1 | CC(C)C[C@H](NC(=O)[C@@H](N)CCCNC(=N)N)C(=O)N[C@@H](C)C(=O)N[C@@H](C)C(N)=O [RLAA] (H-RLAA-NH2) | did not significantly affect | no effect | gaps were completely filled | no significant effect | Neither YL2 nor RLAA tetrapeptide per se had any effect | –
2 | CC(C)C[C@@H]1NC(=O)[C@H](CCCCN)NC(=O)[C@@](C)(NC(=O)[C@H](CC(C)C)NC(=O)[C@H](CC(=O)O)NC(=O)[C@H](CCC(N)=O)NC(=O)[C@H](CCC(=O)O)NC(=O)[C@@H](NC(=O)[C@@H]2CCCN2C(=O)[C@@H]2CCCN2C(=O)[C@H](CC(C)C)NC(=O)[C@@H](N)CC(C)C)[C@@H](C)O)CCC/C=C\CCC[C@@](C)(C(=O)N[C@@H](Cc2ccc(O)cc2)C(N)=O)NC(=O)[C@H](CC2CCCCC2)NC1=O [YL2] (H-LLPPTEQDL[S5]KL[Cha][S5]Y-NH2; staple (Z) 10-14; N-terminus and C-terminus assumed) | did not significantly affect | no effect | gaps were completely filled | no significant effect | Neither YL2 nor RLAA tetrapeptide per se had any effect | –
3 | RLAA (also called RLAA peptide; N-degron tetrapeptide) [RLAA tetrapeptide] | – | – | – | – | – | 4.2 µM
